Assay results from ChEMBL document CHEMBL1201862, “PubChem BioAssay data set” (2004).
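Cells were grown in 96-well plates and exposed to each compound for 48 hours at five concentrations; endpoints were interpolated linearly between bracketing concentrations, or set to the highest concentration if not reached. Abbreviation: GI50, concentration required for 50% inhibition of growth.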 Calls of active or inactive are those of the source. No stated cut-off is given here; in the data, active = GI50 up to about 1.1 µM and inactive = higher.

Assays:
Assay in all cases: NCI tumour cell line growth inhibition, 48 h
DLD-1 = test system: DLD-1
DMS-273 = test system: DMS-273
LXFL 529 = test system: LXFL 529
M19-MEL = test system: M19-MEL
XF498 = test system: XF498
SNB-78 = test system: SNB-78
BT-549 = test system: BT-549
Hs-578T = test system: Hs-578T

Measured: GI50

COC(=O)C1=C(C(=O)OC)C2=S(SC3=C2CCCC3)S1 (stereo not given)
inactive: DLD-1 24 µM | DMS-273 13.1 µM | LXFL 529 5.05 µM | M19-MEL 26.5 µM

N#CC(/C(CCCC(=O)Nc1cccc([N+](=O)[O-])c1)=N\NC(=O)c1c(O)ccc2ccccc12)c1nc2ccccc2s1 (stereo not given)
inactive: XF498 21.8 µM | DLD-1 45.5 µM | DMS-273 8.63 µM | SNB-78 37.4 µM | LXFL 529 30.8 µM | M19-MEL 16.4 µM

O=C1C[C@H]2[C@@H](O1)[C@@H](O)CN1C(=O)c3ccccc3[C@H]21
inactive: BT-549 > 100 µM

O=C1CCCCC1CN1CCCCC1 (stereo not given)
inactive: Hs-578T > 100 µM | BT-549 > 100 µM

CCCN(CCc1ccc(-c2ccccc2)cc1)CCc1ccc2nn[nH]c2c1
inactive: Hs-578T 17.4 µM | BT-549 8.2 µM

CC(=O)CC(O)(C(F)(F)Cl)C(F)(Cl)Cl (stereo not given)
inactive: Hs-578T > 10 µM

CCC1(CC)SCc2nc3ccccc3n21
inactive: Hs-578T 31.1 µM

CC(=O)N(CN1C(=O)CCC1C(=O)O)c1ccccc1 (stereo not given)
inactive: Hs-578T > 53.3 µM | BT-549 > 100 µM

COc1ccc(/C=C/C(=O)C(C)(C)CN2CCCCC2)cc1
inactive: XF498 16.5 µM | DLD-1 18 µM | DMS-273 18.2 µM | SNB-78 17.1 µM | LXFL 529 15.5 µM | M19-MEL 16.4 µM

CCc1cccc(C(C)C)c1NC1=C([n+]2ccc(C)cc2)C(=O)c2ccccc2C1=O.[O-][Cl+3]([O-])([O-])[O-]
inactive: Hs-578T 12.8 µM

COc1cc2oc(=O)cc(C)c2cc1OC
inactive: Hs-578T > 100 µM

Oc1ccc(-c2nn3c(CCCCCCCCc4nnc5sc(-c6ccc(O)cc6)nn45)nnc3s2)cc1
inactive: Hs-578T > 100 µM | BT-549 > 100 µM

CC1OC(n2ccc3ccc([N+](=O)[O-])cc32)C(O)C(O)C1O (stereo not given)
inactive: XF498 > 100 µM | DLD-1 > 100 µM | DMS-273 > 100 µM | SNB-78 > 100 µM | LXFL 529 > 100 µM | M19-MEL > 100 µM

Cc1cccc(N/C(=C(/C(Cl)=C(Cl)Cl)[N+](=O)[O-])n2nnc3ccccc32)c1
inactive: Hs-578T 4.91 µM | BT-549 18.6 µM

CC1=CCC[C@@]2(C)C(CC[C@@H]2C(C)/C=C/C(C)C)c2ccc(cc2C(=O)O)C[C@@H](O)CC1 (stereo not given in full)
inactive: DLD-1 3.67 µM | DMS-273 14.4 µM | SNB-78 16.1 µM | LXFL 529 11.6 µM | M19-MEL 12.7 µM

Cc1ccc(C(=O)Nc2ccccc2)cc1/N=N/N(C)C
inactive: DLD-1 > 100 µM | DMS-273 > 100 µM | SNB-78 > 100 µM | LXFL 529 > 100 µM | M19-MEL > 100 µM

O=C(O)CC/C(=N\Nc1nsc2ccccc12)c1ccc(Cl)cc1
inactive: DMS-273 20 µM | SNB-78 31.6 µM | LXFL 529 19.4 µM | Hs-578T 33.3 µM | BT-549 25.1 µM | M19-MEL 35 µM

O=C/C=C/c1ccco1
inactive: Hs-578T > 100 µM | BT-549 > 100 µM

COC(=O)c1ccc(C)cc1CC1Cc2cc(C)ccc2C1=O (stereo not given)
inactive: Hs-578T > 100 µM | BT-549 94.2 µM

CCOC(=O)c1c(O)cc(=O)[nH]c1N1CCOCC1
inactive: BT-549 > 100 µM

COC(=O)NC(Cc1ccccc1)NC(=O)OC(C)(C)C (stereo not given)
inactive: Hs-578T > 100 µM | BT-549 > 100 µM

COc1cccc(C(NC2=NCCC=N2)c2cc3c(cc2O)OCO3)c1O (stereo not given)
inactive: Hs-578T 25.4 µM | BT-549 16.7 µM

COC(=O)C1N=CSCC1(C)O (stereo not given)
inactive: XF498 > 100 µM | DLD-1 > 100 µM | SNB-78 > 100 µM | M19-MEL > 100 µM

C=C(C)C(O)C(O)c1c(OC)ccc2ccc(=O)oc12 (stereo not given)
inactive: Hs-578T > 100 µM | BT-549 > 100 µM

CC(CN(C)C)C(O)(c1ccccc1)c1ccccc1 (stereo not given)
inactive: Hs-578T > 100 µM | BT-549 > 100 µM

O=[N+]([O-])c1nccn1CC(O)c1ccccc1 (stereo not given)
inactive: XF498 > 100 µM | DMS-273 > 100 µM | LXFL 529 > 100 µM

COC(=O)[C@@]1(O)CC(C)C=C1C=O (stereo not given in full)
inactive: XF498 > 100 µM | DLD-1 43 µM | DMS-273 19.2 µM | SNB-78 20.2 µM | LXFL 529 68.7 µM | M19-MEL 80.7 µM

Cc1ncc([N+](=O)[O-])n1CCNC(=O)Cn1ccnc1[N+](=O)[O-]
inactive: Hs-578T > 100 µM | BT-549 > 100 µM

COc1ccc(-c2cc(=O)c3c(OC)c(OC)c(OC)c(OC)c3o2)cc1 [TANGERETIN]
inactive: Hs-578T 34.2 µM | BT-549 58.9 µM

Cn1nnc2c(C(N)=O)ncn2c1=O [TEMOZOLOMIDE]
inactive: XF498 > 100 µM | DLD-1 > 100 µM | SNB-78 > 100 µM | LXFL 529 > 100 µM | Hs-578T > 100 µM | BT-549 > 100 µM | M19-MEL > 100 µM
